Measured values from PubChem BioAssay (NCI).
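Growth conditions: 96-well plates. Treatment: test compound, 48 hours, 5 concentrations. Analysis: linear interpolation between bracketing concentrations; unreached endpoints set to highest concentration. At the GI50, growth is halved. TGI: concentration producing complete growth inhibition.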

Assays:
Assay in all cases: NCI-60 cell line screen, 48 h
786-0 renal = test system: 786-0 renal
A498 renal = test system: A498 renal
A549 NSCLC = test system: A549 NSCLC
ACHN renal = test system: ACHN renal
BT-549 breast = test system: BT-549 breast
CAKI-1 renal = test system: CAKI-1 renal
CCRF-CEM leukemia = test system: CCRF-CEM leukemia
COLO 205 colon = test system: COLO 205 colon
DU-145 prostate = test system: DU-145 prostate
EKVX NSCLC = test system: EKVX NSCLC
HCC-2998 colon = test system: HCC-2998 colon
HCT-116 colon = test system: HCT-116 colon
HCT-15 colon = test system: HCT-15 colon
HL-60(TB) leukemia = test system: HL-60(TB) leukemia
HOP-62 NSCLC = test system: HOP-62 NSCLC
HOP-92 NSCLC = test system: HOP-92 NSCLC
HS 578T breast = test system: HS 578T breast
HT29 colon = test system: HT29 colon
IGROV1 ovarian = test system: IGROV1 ovarian
K-562 leukemia = test system: K-562 leukemia
KM12 colon = test system: KM12 colon
LOX IMVI melanoma = test system: LOX IMVI melanoma
M14 melanoma = test system: M14 melanoma
MALME-3M melanoma = test system: MALME-3M melanoma
MCF7 breast = test system: MCF7 breast
MDA-MB-231 breast = test system: MDA-MB-231 breast
MDA-MB-435 = test system: MDA-MB-435
MDA-MB-468 breast = test system: MDA-MB-468 breast
MOLT-4 leukemia = test system: MOLT-4 leukemia
NCI-H226 lung = test system: NCI-H226 lung
NCI-H23 lung = test system: NCI-H23 lung
NCI-H460 lung = test system: NCI-H460 lung
NCI-H522 lung = test system: NCI-H522 lung
NCI/ADR-RES ovarian = test system: NCI/ADR-RES ovarian
OVCAR-3 ovarian = test system: OVCAR-3 ovarian
OVCAR-4 ovarian = test system: OVCAR-4 ovarian
OVCAR-5 ovarian = test system: OVCAR-5 ovarian
OVCAR-8 ovarian = test system: OVCAR-8 ovarian
PC-3 prostate = test system: PC-3 prostate
RPMI-8226 leukemia = test system: RPMI-8226 leukemia
RXF 393 renal = test system: RXF 393 renal
SF-268 CNS = test system: SF-268 CNS
SF-295 CNS = test system: SF-295 CNS
SF-539 CNS = test system: SF-539 CNS
SK-MEL-2 melanoma = test system: SK-MEL-2 melanoma
SK-MEL-28 melanoma = test system: SK-MEL-28 melanoma
SK-MEL-5 melanoma = test system: SK-MEL-5 melanoma
SK-OV-3 ovarian = test system: SK-OV-3 ovarian
SN12C renal = test system: SN12C renal
SNB-19 CNS = test system: SNB-19 CNS
SNB-75 CNS = test system: SNB-75 CNS
SR leukemia = test system: SR leukemia
SW-620 colon = test system: SW-620 colon
T-47D breast = test system: T-47D breast
TK-10 renal = test system: TK-10 renal
U251 CNS = test system: U251 CNS
UACC-257 melanoma = test system: UACC-257 melanoma
UACC-62 melanoma = test system: UACC-62 melanoma
UO-31 renal = test system: UO-31 renal

Compound: CC12CCC3(CCC(=O)NCCCNc4ccnc5cc(Cl)ccc45)[C@@](C)(OO[C@]3(C)O1)O2
- GI50 (786-0 renal): 1.79 µM
- TGI (786-0 renal): 8.62 µM
- GI50 (A498 renal): 3.86 µM
- TGI (A498 renal): 22.7 µM
- GI50 (A549 NSCLC): 2.99 µM
- TGI (A549 NSCLC): > 25.5 µM
- GI50 (ACHN renal): 1.16 µM
- TGI (ACHN renal): 6.73 µM
- GI50 (BT-549 breast): 5.28 µM
- TGI (BT-549 breast): 15.5 µM
- GI50 (CAKI-1 renal): 0.951 µM
- TGI (CAKI-1 renal): 4.75 µM
- GI50 (CCRF-CEM leukemia): 3.85 µM
- TGI (CCRF-CEM leukemia): 11 µM
- GI50 (COLO 205 colon): 4.99 µM
- TGI (COLO 205 colon): > 25.5 µM
- GI50 (DU-145 prostate): 3.42 µM
- TGI (DU-145 prostate): 11.9 µM
- GI50 (EKVX NSCLC): 1.99 µM
- TGI (EKVX NSCLC): 19.4 µM
- GI50 (HCC-2998 colon): 8.01 µM
- TGI (HCC-2998 colon): > 25.5 µM
- GI50 (HCT-116 colon): 3.71 µM
- TGI (HCT-116 colon): 13.3 µM
- GI50 (HCT-15 colon): 7.9 µM
- TGI (HCT-15 colon): > 25.5 µM
- GI50 (HL-60(TB) leukemia): 4.94 µM
- TGI (HL-60(TB) leukemia): 11.7 µM
- GI50 (HOP-62 NSCLC): 1.41 µM
- TGI (HOP-62 NSCLC): 6.48 µM
- GI50 (HOP-92 NSCLC): 1.47 µM
- TGI (HOP-92 NSCLC): 12 µM
- GI50 (HS 578T breast): 3 µM
- TGI (HS 578T breast): 14.1 µM
- GI50 (HT29 colon): 6.19 µM
- TGI (HT29 colon): 23.3 µM
- GI50 (IGROV1 ovarian): 2.8 µM
- TGI (IGROV1 ovarian): 8.22 µM
- GI50 (K-562 leukemia): 5.55 µM
- TGI (K-562 leukemia): > 25.5 µM
- GI50 (KM12 colon): 4.5 µM
- TGI (KM12 colon): 24.2 µM
- GI50 (LOX IMVI melanoma): 1.34 µM
- TGI (LOX IMVI melanoma): 4.71 µM
- GI50 (M14 melanoma): 4.36 µM
- TGI (M14 melanoma): 17.4 µM
- GI50 (MALME-3M melanoma): 4.73 µM
- TGI (MALME-3M melanoma): 19.6 µM
- GI50 (MCF7 breast): 1.68 µM
- TGI (MCF7 breast): > 25.5 µM
- GI50 (MDA-MB-231 breast): 1.4 µM
- TGI (MDA-MB-231 breast): 9.92 µM
- GI50 (MDA-MB-435): 4.89 µM
- TGI (MDA-MB-435): > 25.5 µM
- GI50 (MDA-MB-468 breast): 4.05 µM
- TGI (MDA-MB-468 breast): 9.17 µM
- GI50 (MOLT-4 leukemia): 4.68 µM
- TGI (MOLT-4 leukemia): 14.3 µM
- GI50 (NCI-H226 lung): 1.72 µM
- TGI (NCI-H226 lung): 15 µM
- GI50 (NCI-H23 lung): 3.77 µM
- TGI (NCI-H23 lung): 11.8 µM
- GI50 (NCI-H460 lung): 2.49 µM
- TGI (NCI-H460 lung): 11.4 µM
- GI50 (NCI-H522 lung): 3.02 µM
- TGI (NCI-H522 lung): 6.79 µM
- GI50 (NCI/ADR-RES ovarian): 5.84 µM
- TGI (NCI/ADR-RES ovarian): 19.4 µM
- GI50 (OVCAR-3 ovarian): 3.61 µM
- TGI (OVCAR-3 ovarian): 10.8 µM
- GI50 (OVCAR-4 ovarian): 4.89 µM
- TGI (OVCAR-4 ovarian): > 25.5 µM
- GI50 (OVCAR-5 ovarian): 4.2 µM
- TGI (OVCAR-5 ovarian): 16 µM
- GI50 (OVCAR-8 ovarian): 4.92 µM
- TGI (OVCAR-8 ovarian): 12.7 µM
- GI50 (PC-3 prostate): 6.72 µM
- TGI (PC-3 prostate): > 25.5 µM
- GI50 (RPMI-8226 leukemia): 5.86 µM
- TGI (RPMI-8226 leukemia): > 25.5 µM
- GI50 (RXF 393 renal): 0.646 µM
- TGI (RXF 393 renal): 2.74 µM
- GI50 (SF-268 CNS): 2.09 µM
- TGI (SF-268 CNS): 8.55 µM
- GI50 (SF-295 CNS): 4.5 µM
- TGI (SF-295 CNS): 15 µM
- GI50 (SF-539 CNS): 3.38 µM
- TGI (SF-539 CNS): 7.38 µM
- GI50 (SK-MEL-2 melanoma): 8.21 µM
- TGI (SK-MEL-2 melanoma): > 25.5 µM
- GI50 (SK-MEL-28 melanoma): 8.78 µM
- TGI (SK-MEL-28 melanoma): > 25.5 µM
- GI50 (SK-MEL-5 melanoma): 4.36 µM
- TGI (SK-MEL-5 melanoma): 17.2 µM
- GI50 (SK-OV-3 ovarian): 5.46 µM
- TGI (SK-OV-3 ovarian): 16.1 µM
- GI50 (SN12C renal): 2.14 µM
- TGI (SN12C renal): 12.2 µM
- GI50 (SNB-19 CNS): 7.12 µM
- TGI (SNB-19 CNS): > 25.5 µM
- GI50 (SNB-75 CNS): 0.618 µM
- TGI (SNB-75 CNS): 3.77 µM
- GI50 (SR leukemia): 3.66 µM
- TGI (SR leukemia): 16.3 µM
- GI50 (SW-620 colon): 3.62 µM
- TGI (SW-620 colon): > 25.5 µM
- GI50 (T-47D breast): 5.99 µM
- TGI (T-47D breast): > 25.5 µM
- GI50 (TK-10 renal): 1.23 µM
- TGI (TK-10 renal): 11.3 µM
- GI50 (U251 CNS): 4.45 µM
- TGI (U251 CNS): 11.6 µM
- GI50 (UACC-257 melanoma): 8.99 µM
- TGI (UACC-257 melanoma): > 25.5 µM
- GI50 (UACC-62 melanoma): 5.58 µM
- TGI (UACC-62 melanoma): > 25.5 µM
- GI50 (UO-31 renal): 1.43 µM
- TGI (UO-31 renal): 6.78 µM
